Results on 16 compounds are retold here after patent publication US20240343761A1, “APELINERGIC MACROCYCLES AND USES THEREOF” (priority 2021, published 2024).

Usually Ki stands for the equilibrium dissociation constant of an inhibitor or competing ligand from its target. Lower therefore signals a stronger hold on the target. What is called Emax is the maximal effect, on the per cent scale that the assay sets.

Read-outs that look alike come from different tables or passages of the source. Numbered stars: 1 amine (or outer) side, 2 acyl side, 3 side chain; on linkers, the order of the positions; unused ones are H or OH. Bridge positions count the residues as written; N and C are the ends. Square brackets hold non-standard residues; d marks the D form. Peptide text beside a SMILES is read from it. * marks the point of attachment. X3 = O=C([C@H](CCCCNCCC=[*:3])N[*:1])[*:2]; X2 = Cc1ccc2nc(-c3ccc(N*)cc3)sc2c1; dAllylGly = C=CC[C@@H](N)C(=O)O; AllylGly = C=CC[C@H](N)C(=O)O; pGlu = O=C1CC[C@@H](C(=O)O)N1; Nle = CCCC[C@H](N)C(=O)O; Ava = NCCCCC(=O)O; Bn = c1ccc(C*)cc1

One test addresses T1, human APJ (hAPJ) (Homo sapiens, UniProt P35414).
T1 construct: expressed in transfected cells; cell membranes
T1 sequence (P35414 1-380): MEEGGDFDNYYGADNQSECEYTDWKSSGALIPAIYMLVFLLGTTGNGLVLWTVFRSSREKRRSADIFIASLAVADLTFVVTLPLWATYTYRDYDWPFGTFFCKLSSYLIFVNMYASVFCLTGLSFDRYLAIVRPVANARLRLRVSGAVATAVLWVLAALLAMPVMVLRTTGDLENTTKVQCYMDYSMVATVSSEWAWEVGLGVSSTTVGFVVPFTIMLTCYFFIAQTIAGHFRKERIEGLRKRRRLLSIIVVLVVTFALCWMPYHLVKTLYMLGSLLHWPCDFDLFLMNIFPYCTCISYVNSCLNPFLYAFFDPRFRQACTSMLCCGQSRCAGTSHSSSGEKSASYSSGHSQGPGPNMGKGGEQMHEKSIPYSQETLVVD
The test is described as follows: Competitive radioligand binding ([125I][Nle75,Tyr77][Pyr1]-Ape13) on membranes of HEK293 cells stably expressing human APJ. The method, then: HEK293 cells stably expressing YFP-tagged human APJ were cultured in DMEM medium supplemented with 10% FBS, at 37° C. under a humid atmosphere maintaining 5% CO2. Antibiotic G418 (400 μg/mL) was added to maintain a selection pressure for APJ-expressing cells while penicillin/streptomycin (0.1%) were used to prevent bacterial contamination.
Binding experiments were performed on cell membranes of HEK293 stably expressing the YFP-tagged human APJ receptor. Cells were frozen at −80° C. for storage and quickly thawed right before the experiments (1 min at 37° C.). […] The precipitate (cell membranes) was suspended in binding buffer (50 mM Tris-HCl, 0.2% BSA, pH 7.4). Binding assays were run in 96-well plates. […] (820 Ci/mmol)^3 and test ligand with a range of concentrations from 10^−1 to 10^−11 M in a total volume of 200 μL for 1 h at room temperature.
The incubation mixtures were filtered through a glass fiber filter (Millipore, pre-absorbed of PEI 0.5% for 2 h at 4° C.) to remove unbound ligands, and the filter membranes were washed three times with 170 μL cold binding buffer (4° C.). The γ emission was measured using a 1470 Wizard γ-counter from PerkinElmer (Waltham, USA) (80% efficiency).

Test [1] has as its target T2, hAPJ receptor (Homo sapiens, UniProt P35414).
T2 construct: expressed in transfected cells; host or cells: HEK293, transient transfection with PEI
T2 sequence (P35414 1-380): T1 sequence (P35414 1-380)
The test is described as follows: BRET-based Gαi1 activation assay in HEK293 cells. The settings on record: HEK293; Table V; read-out: Gαi1 Emax. It is filed as cell-based. As to the method:
(§1) HEK293 cells were cultivated in high glucose DMEM medium having 10% FBS, 100 U/mL penicillin/streptomycin, 2 mM glutamine, and 20 mM HEPES at 37° C. in T175 flasks under humidified chamber at 5% CO2. […] Cells were then washed with phosphate-buffered saline (PBS) and 90 μL Hanks' balanced salt solution was added in each well. Then, cells were stimulated with analogs at concentrations ranging from 10^−5 M to 10^−11 M for 5 min at 37° C. (Gαi1) or for 30 min at room temperature (β-arrestin2). After stimulation, 5 μM of coelanterazine 400A was added to each well and the plate was read using the BRET^2 filter set of a GeniosPro plate reader (Tecan, Austria). The BRET ratio was determined as GFP10em/RlucIIem. Data were plotted and EC50 values were determined using GraphPad Prism 8. Each data point represents the mean±SEM of at least three different experiments each done in triplicate.

Test [2] deals with T2, hAPJ receptor. Description: BRET-based β-arrestin2 recruitment assay in HEK293 cells. It counts as cell-based. The conditions noted are these: HEK293; Table V; read-out: ß-arr2 Emax. As to the method:
as §1

At human APJ (hAPJ) (Ki binding), `N=C(N)NCCC[C@H](N)C(=O)N[C@H]1CCCCNCCC=CC[C@@H](C(=O)N[C@H](Cc2ccc(OCc3ccccc3)cc2)C(=O)O)NC(=O)[C@@H]2CCCN2C1=O` [Compound 57, NH2-R-c[K(N-butenyl)-P-X]-(D-Tyr(Obn))] (H-R[X3]P[AllylGly][dY](Bn)-OH; staple 2-4) registered a Ki greater than 10 µM.
For the compound `CCCC[C@@H]1NC(=O)[C@@H]2CCCN2C(=O)[C@@H](NC(=O)[C@H](CCCCN)NC(=O)[C@H](Cc2c[nH]cn2)NC(=O)[C@H](CO)NC(=O)[C@H](CC(C)C)NC(=O)[C@H](CCCNC(=N)N)NC(=O)[C@@H]2CCCN2C(=O)[C@H](CCCNC(=N)N)NC(=O)[C@@H]2CCC(=O)N2)CC=CC[C@H](C(=O)O)NC(=O)[C@@H]2CCCN2C1=O` [Compound 10, Pyr-R-P-R-L-S-H-K-[X-P-Nle-P-dX]] ([pGlu]RPRLSHK[AllylGly]P[Nle]P[dAllylGly]-OH; staple 9-13), the Ki on human APJ (hAPJ) was found to be 0.187 ± 0.02 µM.
On human APJ (hAPJ) (Ki binding), `CC(C)C[C@@H]1NC(=O)[C@H](CCCNC(=N)N)NC(=O)[C@@H](N)CC=CC[C@@H](C(=O)N[C@@H](CCCCN)C(=O)O)NC(=O)[C@H](CO)NC1=O` [Compound 30, NH2-c[X-R-L-S-X]c-K] (H-[AllylGly]RLS[AllylGly]K-OH; staple 1-5) yielded a Ki greater than 10 µM.
The same measure, in the same setting: then `CCCC[C@H](NC(=O)[C@@H]1CCCN1C(=O)CNC(=O)[C@H](CCCCN)NC(=O)[C@@H]1CC=CC[C@H](NC(=O)[C@@H]2CCC(=O)N2)C(=O)N2CCC[C@H]2C(=O)N[C@@H](CCCNC(=N)N)C(=O)N[C@@H](CC(C)C)C(=O)N[C@@H](CO)C(=O)N1)C(=O)N1CCC[C@H]1C(=O)N[C@@H](Cc1ccccc1)C(=O)O` [Compound 4, Pyr-c[X-P-R-L-S-X]c-K-G-P-Nle-P-F] ([pGlu][AllylGly]PRLS[AllylGly]KGP[Nle]PF-OH; staple 2-7), with 0.148 ± 0.021 µM; and `CCCC[C@H](NC(=O)[C@@H]1CCCN1C(=O)CNC(=O)[C@H](CCCCN)NC(=O)[C@H](Cc1c[nH]cn1)NC(=O)[C@H](CO)NC(=O)[C@@H]1CC=CC[C@H](NC(=O)[C@@H]2CCC(=O)N2)C(=O)N2CCC[C@H]2C(=O)N[C@@H](C)C(=O)N1)C(=O)N1CCC[C@H]1C(=O)N[C@@H](Cc1ccccc1)C(=O)O` [Compound 5, Pyr-c[X-P-A-X]c-S-H-K-G-P-Nle-P-F] ([pGlu][AllylGly]PA[AllylGly]SHKGP[Nle]PF-OH; staple 2-5), with greater than 10 µM.
With `CCCC[C@@H]1NC(=O)[C@@H]2CCCN2C(=O)[C@H](NC(=O)[C@H](CCCCN)NC(=O)[C@H](Cc2c[nH]cn2)NC(=O)[C@H](CO)NC(=O)[C@H](CC(C)C)NC(=O)[C@H](CCCNC(=N)N)NC(=O)[C@@H]2CCCN2C(=O)[C@H](CCCNC(=N)N)NC(=O)[C@@H]2CCC(=O)N2)CC=CC[C@@H](C(=O)O)NC(=O)[C@@H]2CCCN2C1=O` [Compound 9, Pyr-R-P-R-L-S-H-K-[dX-P-Nle-P-X]] ([pGlu]RPRLSHK[dAllylGly]P[Nle]P[AllylGly]-OH; staple 9-13), affinity at human APJ (hAPJ) was put at a Ki of 0.052 ± 0.015 µM.
For the compound `CCCC[C@H](NC(=O)[C@@H]1CCCN1C(=O)CNC(=O)[C@H](CCCCN)NC(=O)[C@@H]1CC=CC[C@H](NC(=O)[C@@H]2CCC(=O)N2)C(=O)N2CCC[C@H]2C(=O)N[C@@H](C)C(=O)N[C@@H](CC(C)C)C(=O)N[C@@H](CO)C(=O)N1)C(=O)N1CCC[C@H]1C(=O)N[C@@H](Cc1ccccc1)C(=O)O` [Compound 7, Pyr-c[X-P-A-L-S-X]c-K-G-P-Nle-P-F] ([pGlu][AllylGly]PALS[AllylGly]KGP[Nle]PF-OH; staple 2-7), on human APJ (hAPJ) (Ki binding), the inhibition constant Ki was greater than 10 µM.
Compound `CCCC[C@H](NC(=O)[C@@H]1CCCN1C(=O)[C@@H]1CCCCNC(=O)CC[C@H](NC(=O)[C@H](CC(C)C)NC(=O)[C@H](CCCNC(=N)N)NC(=O)[C@@H]2CCCN2C(=O)[C@H](CCCNC(=N)N)NC(=O)[C@H](CCC(N)=O)NC(=O)[C@H](CCCNC(=N)N)NC(=O)[C@H](CCCNC(=N)N)NC(=O)[C@H](Cc2ccccc2)NC(=O)[C@H](CCCCN)NC(C)=O)C(=O)N[C@@H](Cc2c[nH]cn2)C(=O)N[C@@H](CCCCN)C(=O)N1)C(=O)N1CCC[C@H]1C(=O)N[C@@H](CC(=O)Nc1ccc(-c2nc3ccc(C)cc3s2)cc1)C(=O)O` [Compound 68, Ac-K-F-R-R-Q-R-P-R-L-[E-H-K-K]-P-Nle-P-B2] (Ac-KFRRQRPRLEHKKP[Nle]PD(X2)-OH; lactam 10-13) gave an inhibitory constant (Ki) at human APJ (hAPJ) (Ki binding) of 0.004 ± 0.001 µM.
The same measure, in the same setting: the same measure for `CCCC[C@H](NC(=O)[C@@H]1CCCN1C(=O)CNC(=O)[C@H](CCCCN)NC(=O)[C@H](Cc1c[nH]cn1)NC(=O)[C@@H]1CC=CC[C@H](NC(=O)[C@@H]2CCC(=O)N2)C(=O)N2CCC[C@H]2C(=O)N[C@@H](C)C(=O)N[C@@H](CC(C)C)C(=O)N1)C(=O)N1CCC[C@H]1C(=O)N[C@@H](Cc1ccccc1)C(=O)O` [Compound 6, Pyr-c[X-P-A-L-X]c-H-K-G-P-Nle-P-F]: greater than 10 µM; for `CCCC[C@H](NC(=O)[C@@H]1CCCN1C(=O)CNC(=O)[C@H](CCCCN)NC(=O)[C@H](Cc1c[nH]cn1)NC(=O)[C@H](CO)NC(=O)[C@@H]1CC=CC[C@H](NC(=O)[C@@H]2CCC(=O)N2)C(=O)N2CCC[C@H]2C(=O)N[C@@H](CCCNC(=N)N)C(=O)N1)C(=O)N1CCC[C@H]1C(=O)N[C@@H](Cc1ccccc1)C(=O)O` [Compound 3, Pyr-c[X-P-R-X]c-S-H-K-G-P-Nle-P-F] ([pGlu][AllylGly]PR[AllylGly]SHKGP[Nle]PF-OH; staple 2-5): 1.25 ± 0.284 µM.
Same read-out and setting: the same measure for `CCCC[C@H](NC(=O)[C@@H]1CCCN1C(=O)CCCCNC(=O)[C@@H]1CC=CC[C@H](N)C(=O)N[C@@H](CCCNC(=N)N)C(=O)N[C@@H](CC(C)C)C(=O)N[C@@H](CO)C(=O)N1)C(=O)O` [Compound 32, NH2-c[X-R-L-S-X]c-5Ava-P-Nle] (H-[AllylGly]RLS[AllylGly][Ava]P[Nle]-OH; staple 1-5): greater than 10 µM.
`CCCC[C@H](NC(=O)[C@@H]1CCCN1C(=O)CNC(=O)[C@@H]1CC=CC[C@H](NC(=O)[C@@H]2CCC(=O)N2)C(=O)N2CCC[C@H]2C(=O)N[C@@H](C)C(=O)N[C@@H](CC(C)C)C(=O)N[C@@H](CO)C(=O)N[C@@H](Cc2c[nH]cn2)C(=O)N1)C(=O)N1CCC[C@H]1C(=O)N[C@@H](Cc1ccccc1)C(=O)O` [Compound 8, Pyr-c[X-P-A-L-S-H-X]c-G-P-Nle-P-F] ([pGlu][AllylGly]PALSH[AllylGly]GP[Nle]PF-OH; staple 2-8) showed a Ki on human APJ (hAPJ) (Ki binding) greater than 10 µM.
`CCCC[C@H](NC(=O)[C@@H]1CCCN1C(=O)CNC(=O)[C@H](CCCCN)NC(=O)[C@@H]1CCN(S(=O)(=O)c2ccccc2[N+](=O)[O-])CC=CC[C@H](N)C(=O)N[C@@H](CCCNC(=N)N)C(=O)N[C@@H](CC(C)C)C(=O)N[C@@H](CO)C(=O)N1)C(=O)N1CCC[C@H]1C(=O)N[C@@H](Cc1ccccc1)C(=O)O` [Compound 28, NH2-c[X-R-L-S-Alnb]c-K-G-P-Nle-P-F]: the maximum response (Emax) was 106% on hAPJ receptor [1] and 82% on hAPJ receptor [2].
Regarding `CCCC[C@H](NC(=O)[C@@H]1CCCN1C(=O)CNC(=O)[C@H](CCCCN)NC(=O)[C@@H]1CC=CC[C@H](NC(=N)N)C(=O)N[C@@H](CCCNC(=N)N)C(=O)N[C@@H](CC(C)C)C(=O)N[C@@H](CO)C(=O)N1)C(=O)N1CCC[C@H]1C(=O)N[C@@H](Cc1ccccc1)C(=O)O` [Compound 23, Guanidine-c[X-R-L-S-X]c-K-G-P-Nle-P-F], the results for the maximum response (Emax) on hAPJ receptor [1] and on hAPJ receptor [2] were 103% and 92%, respectively.
On the same counts, the results for `CC(C)C[C@@H]1NC(=O)[C@H](CCCNC(=N)N)NC(=O)[C@@H](N)CC=CC[C@@H](C(=O)N[C@@H](CCCCN)C(=O)NCC(=O)N2CCC[C@H]2C(=O)N[C@H](Cc2ccc(O)cc2)C(=O)O)NC(=O)[C@H](CO)NC1=O` [Compound 45, NH2-c[X-R-L-S-X]c-K-G-P-(D-Tyr)] are 100% and 54%.
In turn, `N=C(N)NCCC[C@H](N)C(=O)N[C@H]1CCCCNC(=O)CC[C@@H](C(=O)N[C@@H](Cc2ccc(OCc3ccccc3)cc2)C(=O)O)NC(=O)[C@@H]2CCCN2C1=O` [Compound 58, NH2-R-c[K-P-E]-Tyr(Obn)] (H-RKPEY(Bn)-OH; lactam 2-4) showed an inhibitory constant (Ki) on human APJ (hAPJ) (Ki binding) greater than 10 µM.
